Test results published in patent US9187467B2, “2-phenyl benzothiazole linked imidazole compounds as potential anticancer agents and process for the preparation thereof” (Council of Scientific and Industrial Research, priority 2012, dated 2015).
Where two headings read alike, the source gives them in different places.

Experiments:
caspase-9 = test: Western blot, apoptosis proteins in MCF-7 cells; format: cell-based; details: 2 μM, 24h
Protocol: (§1) FIG. 3 represents effect of compound 7d and 7h on p21 and caspase-9. MCF-7 cells were treated with 2 μM concentration of compounds 7d and 7h for 24h. The cell lysates were collected and probed with anti-bodies against p21 and caspase-9. beta-actin was used as loading control. Con: Control (untreated).
(§2) Activation of tumor suppressor gene p21 was the important regulator of apoptotic pathway caused by various stimuli. In many instances the apoptotic cell death is mediated by caspases, thus the possible involvement of p21 and caspase protein and its role in apoptosis has been investigated. MCF-7 cells were treated with 7d, 7h (the effective compounds of cell cycle arrest) 21a, 21d and CA-4 at 2 μM concentration.

p21 = test: Western blot, apoptosis proteins in MCF-7 cells; format: cell-based; details: 2 μM, 24h
Protocol: as §1, §2

K562 (Leukemia) cells = test: Cell cycle distribution by flow cytometry; format: cell-based
Protocol: (§3) In order to investigate the mechanism underlying the anti-proliferative effect of the compounds the cell cycle distribution was analyzed in K562 (Leukemia) and MCF-7 (Breast carcinoma) cell lines by flow cytometry. Compounds CA-4, 21a, 21d, 4c, 6d, 6e, 6f, 7d, 7h and 7j have shown 1.72%, 14%, 12%, 14%, 12%, 14%, 14%, 16%, 16% &12% in K562 cells and 49.63%, 21%, 20%, 18%, 21%, 21%, 21%, 24%, 23% and 23% in MCF-7 cell line respectively. […] Thus compound 7d was considered for further studies (FIG. 1).

[1] = tested on: MCF-7 (Breast carcinoma) cells; test: Cell cycle distribution by flow cytometry (FACS); format: cell-based; details: MCF-7 cells, 2 μM, 24h
Protocol: FIG. 1 represents FACS analysis of cell cycle distribution of MCF-7 cells after treatment with compounds CA-4, 21a, 21d, 4c, 6d, 6e, 6f, 7d, 7h and 7j at 2 μM concentration for 24h and control cells are the cells treated with DMSO (0.25%).
as §3

SW-620 = test: SRB anticancer assay, colon; format: cell-based, human; details: SW-620, 48 h
MALME-3M = test: SRB anticancer assay, melanoma; format: cell-based, human; details: MALME-3M, 48 h
786-0 = test: SRB anticancer assay, renal; format: cell-based, human; details: 786-0, 48 h
OVCAR-3 = test: SRB anticancer assay, ovarian; format: cell-based, human; details: OVCAR-3, 48 h
KM12 = test: SRB anticancer assay, colon; format: cell-based, human; details: KM12, 48 h
SK-OV-3 = test: SRB anticancer assay, ovarian; format: cell-based, human; details: SK-OV-3, 48 h
CAKI-1 = test: SRB anticancer assay, renal; format: cell-based, human; details: CAKI-1, 48 h
HOP-62 = test: SRB anticancer assay, non-small lung; format: cell-based, human; details: HOP-62, 48 h
MDA-MB-231/ATCC = test: SRB anticancer assay, breast; format: cell-based, human; details: 48 h, read-out: GI50
HCT-116 = test: SRB anticancer assay, colon; format: cell-based, human; details: HCT-116, 48 h
UO-31 = test: SRB anticancer assay, renal; format: cell-based, human; details: UO-31, 48 h
SR = test: SRB anticancer assay, leukemia; format: cell-based, human; details: 48 h
MDA-MB-435 = test: SRB anticancer assay, melanoma; format: cell-based, human; details: MDA-MB-435, 48 h
HT29 = test: SRB anticancer assay, colon; format: cell-based, human; details: HT29, 48 h
SF-268 = test: SRB anticancer assay, CNS; format: cell-based, human; details: SF-268, 48 h
OVCAR-5 = test: SRB anticancer assay, ovarian; format: cell-based, human; details: OVCAR-5, 48 h
SNB-75 = test: SRB anticancer assay, CNS; format: cell-based, human; details: SNB-75, 48 h
U251 = test: SRB anticancer assay, CNS; format: cell-based, human; details: U251, 48 h
OVCAR-4 = test: SRB anticancer assay, ovarian; format: cell-based, human; details: OVCAR-4, 48 h
NCI-H522 = test: SRB anticancer assay, non-small lung; format: cell-based, human; details: NCI-H522, 48 h
UACC-62 = test: SRB anticancer assay, melanoma; format: cell-based, human; details: UACC-62, 48 h
SF-295 = test: SRB anticancer assay, CNS; format: cell-based, human; details: SF-295, 48 h
M14 = test: SRB anticancer assay, melanoma; format: cell-based, human; details: M14, 48 h
MCF7 = test: SRB anticancer assay, breast; format: cell-based, human; details: MCF7, 48 h
SK-MEL-28 = test: SRB anticancer assay, melanoma; format: cell-based, human; details: SK-MEL-28, 48 h
RXF 393 = test: SRB anticancer assay, renal; format: cell-based, human; details: RXF 393, 48 h
TK-10 = test: SRB anticancer assay, renal; format: cell-based, human; details: TK-10, 48 h
MOLT-4 = test: SRB anticancer assay, leukemia; format: cell-based, human; details: MOLT-4, 48 h
HS 578T = test: SRB anticancer assay, breast; format: cell-based, human; details: 48 h
CCRF-CEM = test: SRB anticancer assay, leukemia; format: cell-based, human; details: 48 h
SN12C = test: SRB anticancer assay, renal; format: cell-based, human; details: 48 h
IGROV1 = test: SRB anticancer assay, ovarian; format: cell-based, human; details: IGROV1, 48 h
ACHN = test: SRB anticancer assay, renal; format: cell-based, human; details: 48 h
SNB-19 = test: SRB anticancer assay, CNS; format: cell-based, human; details: SNB-19, 48 h
DU-145 = test: SRB anticancer assay, prostate; format: cell-based, human; details: DU-145, 48 h
PC-3 = test: SRB anticancer assay, prostate; format: cell-based, human; details: PC-3, 48 h
NCI-H23 = test: SRB anticancer assay, non-small lung; format: cell-based, human; details: NCI-H23, 48 h
SK-MEL-5 = test: SRB anticancer assay, melanoma; format: cell-based, human; details: SK-MEL-5, 48 h
EKVX = test: SRB anticancer assay, non-small lung; format: cell-based, human; details: 48 h
NCI-H460 = test: SRB anticancer assay, non-small lung; format: cell-based, human; details: NCI-H460, 48 h
BT-549 = test: SRB anticancer assay, breast; format: cell-based, human; details: BT-549, 48 h
K-562 = test: SRB anticancer assay, leukemia; format: cell-based, human; details: K-562, 48 h
A549/ATCC = test: SRB anticancer assay, non-small lung; format: cell-based, human; details: 48 h
NCI-H226 = test: SRB anticancer assay, non-small lung; format: cell-based, human; details: NCI-H226, 48 h
A498 = test: SRB anticancer assay, renal; format: cell-based, human; details: A498, 48 h
NCI-H322M = test: SRB anticancer assay, non-small lung; format: cell-based, human; details: 48 h

Structure (SMILES): Nc1ccc(-c2nc3ccc(F)cc3s2)cc1 [Compound 21a, 4-(6-fluorobenzo[d]thiazol-2-yl)benzenamine]
- caspase-9 protein (Western blot) (caspase-9): increase
- p21 protein (Western blot) (p21): increase
- cells in G2/M phase (K562 (Leukemia) cells): 14%
- cells in G2/M phase [1]: 21%

Structure (SMILES): COc1ccc(/C=C\c2cc(OC)c(OC)c(OC)c2)cc1O [CA-4, Combretastatin A-4, reference compound]
- caspase-9 protein (Western blot) (caspase-9): increase
- p21 protein (Western blot) (p21): increase
- cells in G2/M phase (K562 (Leukemia) cells): 1.72%
- cells in G2/M phase [1]: 49.63%

Structure (SMILES): Cc1cc(-c2nc3ccc(O)cc3s2)ccc1N [Compound 3b, reference compound]
- GI50 (SW-620): 66.1 µM
- GI50 (MALME-3M): 83.2 µM
- GI50 (786-0): 29.5 µM
- GI50 (OVCAR-3): 38.9 µM
- GI50 (KM12): 57.6 µM
- GI50 (SK-OV-3): 37.2 µM
- GI50 (CAKI-1): 34.7 µM
- GI50 (HOP-62): 30.9 µM
- GI50 (MDA-MB-231/ATCC; MDA-MB-231/ATCC (row head MDA-MB-)): 44.7 µM
- GI50 (MDA-MB-231/ATCC; listed as head printed 231/ATCC (second line of MDA-MB-231/ATCC)): 95.5 µM
- GI50 (HCT-116): 43.7 µM
- GI50 (UO-31): 21.4 µM
- GI50 (SR): 21.9 µM
- GI50 (MDA-MB-435): 89.1 µM
- GI50 (HT29): 37.2 µM
- GI50 (SF-268): 35.5 µM
- GI50 (OVCAR-5): 83.2 µM
- GI50 (SNB-75): 15.8 µM
- GI50 (U251): 31.6 µM
- GI50 (OVCAR-4): 37.2 µM
- GI50 (NCI-H522): 30.2 µM
- GI50 (UACC-62): 57.6 µM
- GI50 (SF-295): 31.6 µM
- GI50 (M14): 33.1 µM
- GI50 (MCF7): 56.2 µM
- GI50 (SK-MEL-28): 64.6 µM
- GI50 (RXF 393): 30.2 µM
- GI50 (TK-10): 77.6 µM
- GI50 (MOLT-4): 26.9 µM
- GI50 (HS 578T): 14.1 µM
- GI50 (CCRF-CEM): 0.79 µM
- GI50 (SN12C): 38.9 µM
- GI50 (IGROV1): 47.9 µM
- GI50 (ACHN): 53.7 µM
- GI50 (SNB-19): 45.7 µM
- GI50 (DU-145): 33.9 µM
- GI50 (PC-3): 50.1 µM
- GI50 (NCI-H23): 12.6 µM
- GI50 (SK-MEL-5): 52.5 µM
- GI50 (EKVX): 4.07 µM
- GI50 (NCI-H460): 38.9 µM
- GI50 (BT-549): 22.4 µM
- GI50 (K-562): 36.3 µM
- GI50 (A549/ATCC): 34.7 µM
- GI50 (NCI-H226): 60.3 µM
- GI50 (A498): 41.7 µM
- GI50 (NCI-H322M): 39.8 µM

Structure (SMILES): COc1cc2nc(-c3ccc(N)cc3)sc2c(OC)c1OC [Compound 21d, 4-(5,6,7-trimethoxybenzo[d]thiazol-2-yl)benzenamine]
- caspase-9 protein (Western blot) (caspase-9): increase
- p21 protein (Western blot) (p21): increase
- cells in G2/M phase (K562 (Leukemia) cells): 12%
- cells in G2/M phase [1]: 20%
